Assay results taken from ChEMBL document CHEMBL3886247, “Aurora and FLT3 kinases modulators” (2015).

Experiments:
Aurora kinase B = Aurora kinase B (Homo sapiens, UniProt Q96GD4); test: Inhibition Assay: Kinase assays were performed at Reaction Biology Corp., Malvern, Pa., USA, using the following general procedure:1) Prepare indicated substrate in freshly prepared Base Reaction Buffer (20 mM Hepes pH 7.5, 10 mM MgCl2, 1 mM EGTA, 0.02% Brij35, 0.02 mg/ml BSA, 0.1 mM Na3VO4, 2 mM DTT, 1% DMSO).2) Deliver cofactors (1.5 mM CaCl2, 16 ug/mL Calmodulin, 2 mM MnCl2) to the substrate solution above.3) Deliver indicated kinase into the substrate solution and gently mix4) Deliver varying concentrations of test compound in DMSO into the kinase reaction mixture.5) Deliver 33P-ATP (specific activity 0.01 uCi/uL final) into the reaction mixture to initiate the reaction.6) Incubate kinase reaction for 120 min at room temperature.7) Reactions are spotted onto P81 ion exchange filter paper (Whatman #3698-915)8) Unbound phosphate is removed by washing filters extensively in 0.75% phosphoric acid.9) 33P signal was determined using Typhoon phosphorimagers (GE Healthcare).
[1] = target: T1, Receptor-type tyrosine-protein kinase FLT3 (Homo sapiens, UniProt P36888); test: Inhibition Assay: Kinase assays were performed at Reaction Biology Corp., Malvern, Pa., USA, using the following general procedure:1) Prepare indicated substrate in freshly prepared Base Reaction Buffer (20 mM Hepes pH 7.5, 10 mM MgCl2, 1 mM EGTA, 0.02% Brij35, 0.02 mg/ml BSA, 0.1 mM Na3VO4, 2 mM DTT, 1% DMSO).2) Deliver cofactors (1.5 mM CaCl2, 16 ug/mL Calmodulin, 2 mM MnCl2) to the substrate …
T1 sequence (P36888 whole entry): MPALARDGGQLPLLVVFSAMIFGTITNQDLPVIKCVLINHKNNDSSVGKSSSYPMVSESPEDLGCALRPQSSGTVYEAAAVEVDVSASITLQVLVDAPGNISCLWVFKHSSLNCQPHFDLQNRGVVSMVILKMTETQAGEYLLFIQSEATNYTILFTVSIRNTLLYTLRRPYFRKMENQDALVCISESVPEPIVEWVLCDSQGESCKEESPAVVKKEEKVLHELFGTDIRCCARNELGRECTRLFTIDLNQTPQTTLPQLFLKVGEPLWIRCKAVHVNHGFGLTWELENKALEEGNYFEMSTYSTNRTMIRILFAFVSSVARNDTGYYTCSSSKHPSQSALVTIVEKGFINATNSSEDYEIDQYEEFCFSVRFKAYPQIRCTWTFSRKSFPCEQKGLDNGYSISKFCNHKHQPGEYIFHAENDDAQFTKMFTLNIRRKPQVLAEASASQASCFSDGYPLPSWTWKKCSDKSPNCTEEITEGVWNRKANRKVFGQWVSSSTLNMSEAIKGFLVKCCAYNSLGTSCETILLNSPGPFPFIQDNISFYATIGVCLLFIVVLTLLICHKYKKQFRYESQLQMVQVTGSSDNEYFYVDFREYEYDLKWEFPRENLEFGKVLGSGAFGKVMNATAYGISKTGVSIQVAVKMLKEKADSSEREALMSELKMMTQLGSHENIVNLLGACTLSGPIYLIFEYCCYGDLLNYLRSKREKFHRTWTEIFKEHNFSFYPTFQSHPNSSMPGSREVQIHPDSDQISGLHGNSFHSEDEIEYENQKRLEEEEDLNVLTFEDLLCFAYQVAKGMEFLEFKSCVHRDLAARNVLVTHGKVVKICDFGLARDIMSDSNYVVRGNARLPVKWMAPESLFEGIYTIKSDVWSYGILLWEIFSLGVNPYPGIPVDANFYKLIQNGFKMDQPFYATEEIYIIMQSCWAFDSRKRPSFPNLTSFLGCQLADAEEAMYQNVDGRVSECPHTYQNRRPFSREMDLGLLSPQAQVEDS

Sequence of Aurora kinase B (Q96GD4 whole entry): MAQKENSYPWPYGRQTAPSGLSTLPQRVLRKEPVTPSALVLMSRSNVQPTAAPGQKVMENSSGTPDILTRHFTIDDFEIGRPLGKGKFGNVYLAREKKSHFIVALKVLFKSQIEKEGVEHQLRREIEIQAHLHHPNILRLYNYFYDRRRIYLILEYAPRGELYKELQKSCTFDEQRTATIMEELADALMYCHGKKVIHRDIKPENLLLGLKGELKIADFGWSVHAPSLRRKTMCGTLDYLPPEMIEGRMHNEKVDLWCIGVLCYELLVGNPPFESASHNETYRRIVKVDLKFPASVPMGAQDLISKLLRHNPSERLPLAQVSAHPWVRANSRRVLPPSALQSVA

IC50 (Aurora kinase B): 12 nM | IC50 [1]: 0.67 nM
SMILES: CCc1ccc(-c2nc(C(N)=O)c(-c3ccc(N4CCNC(C)(C)C4)cc3)o2)c2cc[nH]c12
